Data reported in patent publication US20240027453A1, “METHOD FOR DETECTION AND QUANTITATIVE MONITORING OF INFECTIONS WITH HERPESVIRUSES” (The Trustees of Princeton University, priority 2020, published 2024).
Read-outs that look alike come from different tables or passages of the source.

Test system: HCMV
Type: cell-based
Settings: for UL36 (P16767) protein, numerical value of heatmap FIG. 6C / UL37 (P16778) protein, numerical value of heatmap FIG. 6C / UL122 (P19893) protein, numerical value of heatmap FIG. 6C / UL123 (P13202) protein, numerical value of heatmap FIG. 6C / IRS1 (P09715) protein, numerical value of heatmap FIG. 6C / TRS1 (P09695) protein, numerical value of heatmap FIG. 6C / UL13 (P16755) protein, numerical value of heatmap FIG. 6C: IE
Procedure: In example herpesvirus PRM assay methods shown herein, cell pellets were lysed in 2% SDS, 100 mM NaCl, 0.5 mM EDTA, 50 mM Tris, pH 8.2, and 50 μg of protein was reduced and alkylated with 25 mM TCEP and 50 mM CAM respectively for 20 min at 70° C. Proteins were then precipitated via methanol chloroform precipitation (Wessel & Flugg, Anal Biochem. 138(1):141-143, 1984), resuspended in 50 mM HEPES, pH 8.2 and digested overnight with trypsin (50:1 protein:enzyme w/w ratio). Digested peptides were desalted by SDB-RPS StageTip as previously described (Lum et al., Cell Syst., 7(6):[…], 2018; Greco et al., Methods Mol Biol 1410:39-63, 2016; Federspiel & Cristea, Methods Mol Biol., 1977:115-143, 2019).
Peptides (1.0 μg on column) were analyzed by LC-MS/MS using a Dionex Ultimate 3000 UHPLC coupled online to an EASYSpray ion source and a Q Exactive HF. Peptides were separated on an EASYSpray C18 column (75 μm×25 cm) heated to 50° C. using a linear gradient of 5% B to 32% B over 60 min at a flow rate of 250 nL/min and were ionized at 1.7 kv. Mobile phase A consisted of 0.1% FA in H2O and mobile phase B consisted of 0.1% FA, 2.9% H2O in ACN.
The PRM method was controlled by a peptide inclusion list with retention time windows of 6 min for selected precursor ions.
The PRM assay was developed and analyzed using the open-source software Skyline (Maclean et al., Bioinformatics 26(7):966-968, 2010). Summed area under the curve of 3-4 transitions per peptide was used for quantitation. Targeted peptides were normalized to host protein loading control peptides. Peptide values for each sample were scaled to the average of each peptide across all runs. The average of multiple peptides was used as the inferred value for the protein measurement when more than one peptide was quantified (Federspiel et al., PLoS Biol. 17(9):e3000437. Doi: 10.1371/journal.pbio.3000437). PRM quantitation data were graphed using the Python Seaborn and Matplotlib libraries.
MRC5 primary human fibroblasts (HFs) (ATCC CCL-171) were used as the model system for HSV-1 and HCMV infections and were cultured in complete growth medium (DMEM supplemented with 10% fetal bovine serum and 1% penicillin-streptomycin antibiotics) at 37° C. and 5% CO2. iSLK.219 cells harboring latent KSHV (a gift from Dr. Britt Glaunsinger, University of California, Berkeley) were grown in complete growth medium supplemented with 500 μg/ml hygromycin (ThermoFisher Scientific, 10687010) at 37° C. and 5% CO2. All cells were used for experiments within a maximum of 10 passages.
Wild type HSV-1 strain 17+ (a gift from Beate Sodeik, Hannover Medical School, Hannover, Germany) was propagated as previously described (Diner et al., 2015). Briefly, PO stocks were generated by electroporating pBAC-HSV-1 into U-2 OS cells. […] In a similar manner, wild type HCMV strain AD169 was produced from BAC electroporation into HFs and working stocks were propagated by infecting HFs at a low level. In both cases, cell-associated virus was released by sonication, combined with supernatant virus, then concentrated by ultracentrifugation (20,000 rpm, 2 hours, 4° C. with SW28 swinging bucket rotor [Beckman Coulter]) over a 10% ficoll (HSV-1) or 20% sorbitol (HCMV) cushion. Virus stock titers were determined by plaque assay for HSV-1 or tissue culture infectious dose (TCID50) for HCMV and infections were performed at a multiplicity of infection (MOI) of 3.
12 hours prior to virus infection or reactivation, cells were treated with either the small molecule drug or DMSO/PBS control at an equivalent volume. […] For infection cycles lasting longer than 24 hours, small molecule drugs were re-added to the cell culture medium every 24 hours. Upon collection, cells were rinsed with PBS, scraped into a microcentrifuge tube, pelleted by centrifugation, and rinsed again with PBS.

For `Nc1ccn(C[C@@H](CO)OCP(=O)(O)O)c(=O)n1` [CDV, cidofovir], the “UL36 (P16767) protein, numerical value of heatmap FIG. 6C” value (“UL36 (P16767) protein, numerical value” below) (timepoint 48) was 0.9304, the “UL37 (P16778) protein, numerical value of heatmap FIG. 6C” value (“UL37 (P16778) protein, numerical value” below) (timepoint 48) was 0.8657 and the “UL122 (P19893) protein, numerical value of heatmap FIG. 6C” value (“UL122 (P19893) protein, numerical value” below) (timepoint 48) was 0.07563. The “UL123 (P13202) protein, numerical value of heatmap FIG. 6C” value (“UL123 (P13202) protein, numerical value” for short) (timepoint 48) was 0.8515, the “IRS1 (P09715) protein, numerical value of heatmap FIG. 6C” value (from here on “IRS1 (P09715) protein, numerical value”) (timepoint 72) was 1.017 and the “TRS1 (P09695) protein, numerical value of heatmap FIG. 6C” value (“TRS1 (P09695) protein, numerical value” for short) (timepoint 72) was 0.9014. The “UL13 (P16755) protein, numerical value of heatmap FIG. 6C” value (“UL13 (P16755) protein, numerical value” for short) (timepoint 72) was 0.8575, the “UL36 (P16767) protein, numerical value” value (timepoint 72) was 0.8818 and the “UL37 (P16778) protein, numerical value” value (timepoint 72) was 1.038. For the same compound, the “UL122 (P19893) protein, numerical value” value (timepoint 72) was 0.3738, the “UL123 (P13202) protein, numerical value” value (timepoint 72) was 0.7924 and the “IRS1 (P09715) protein, numerical value” value (timepoint 96) was 0.9536. The “TRS1 (P09695) protein, numerical value” value (timepoint 96) was 0.7893, the “UL13 (P16755) protein, numerical value” value (timepoint 96) was 0.7965 and the “UL36 (P16767) protein, numerical value” value (timepoint 96) was 0.834. For the same compound, the “UL37 (P16778) protein, numerical value” value (timepoint 96) was 0.936, the “UL122 (P19893) protein, numerical value” value (timepoint 96) was 0.8676 and the “UL123 (P13202) protein, numerical value” value (timepoint 96) was 0.7732. The “IRS1 (P09715) protein, numerical value” value (timepoint 120) was 1.003, the “TRS1 (P09695) protein, numerical value” value (timepoint 120) was 1.103 and the “UL13 (P16755) protein, numerical value” value (timepoint 120) was 1.075. For the same compound, the “UL36 (P16767) protein, numerical value” value (timepoint 120) was 1.234, the “UL37 (P16778) protein, numerical value” value (timepoint 120) was 1.212 and the “UL122 (P19893) protein, numerical value” value (timepoint 120) was 1.141. The “UL123 (P13202) protein, numerical value” value (timepoint 120) was 1.074, the “MCP (P16729) protein, numerical value of heatmap FIG. 6C” value (L, timepoint 24) was 0.009303 and the “UL25 (P16761) protein, numerical value of heatmap FIG. 6C” value (L, timepoint 24) was 0.02316. The “UL29 (P16764) protein, numerical value of heatmap FIG. 6C” value (L, timepoint 24) was 0.4352, the “UL31 (P16848) protein, numerical value of heatmap FIG. 6C” value (L, timepoint 24) was 0.2632 and the “UL43 (P16781) protein, numerical value of heatmap FIG. 6C” value (L, timepoint 24) was 0.06898. For the same compound, the “UL52 (P16793) protein, numerical value of heatmap FIG. 6C” value (L, timepoint 24) was 0.01391, the “UL80 (P16753) protein, numerical value of heatmap FIG. 6C” value (L, timepoint 24) was 0.007269 and the “UL82 (P06726) protein, numerical value of heatmap FIG. 6C” value (L, timepoint 24) was 0.2135. For the same compound, the “UL94 (P16800) protein, numerical value of heatmap FIG. 6C” value (L, timepoint 24) was 0.03193, the “UL99 (P13200) protein, numerical value of heatmap FIG. 6C” value (L, timepoint 24) was 0.01797 and the “UL103 (P16734) protein, numerical value of heatmap FIG. 6C” value (L, timepoint 24) was 0.236. The “UL117 (P16770) protein, numerical value of heatmap FIG. 6C” value (L, timepoint 24) was 0.1983, the “gH (P12824) protein, numerical value of heatmap FIG. 6C” value (L, timepoint 24) was 0.03303 and the “gL (P16832) protein, numerical value of heatmap FIG. 6C” value (L, timepoint 24) was 0.03204. For the same compound, the “gM (P16733) protein, numerical value of heatmap FIG. 6C” value (L, timepoint 24) was 0.0224, the “sp|P16809|IR11_HCMVA (P16809) protein, numerical value of heatmap FIG. 6C” value (L, timepoint 24) was 0.04109 and the “CVC1 (P16799) protein, numerical value of heatmap FIG. 6C” value (L, timepoint 48) was 0.1142. For the same compound, the “MCP (P16729) protein, numerical value of heatmap FIG. 6C” value (L, timepoint 48) was 0.01444, the “TRM2 (P16792) protein, numerical value of heatmap FIG. 6C” value (L, timepoint 48) was 0.0613 and the “UL22A (P16845) protein, numerical value of heatmap FIG. 6C” value (L, timepoint 48) was 0.07025. For the same compound, the “UL25 (P16761) protein, numerical value of heatmap FIG. 6C” value (L, timepoint 48) was 0.06426, the “UL29 (P16764) protein, numerical value of heatmap FIG. 6C” value (L, timepoint 48) was 0.6305 and the “UL31 (P16848) protein, numerical value of heatmap FIG. 6C” value (L, timepoint 48) was 0.2379. For the same compound, the “UL43 (P16781) protein, numerical value of heatmap FIG. 6C” value (L, timepoint 48) was 0.09529, the “UL52 (P16793) protein, numerical value of heatmap FIG. 6C” value (L, timepoint 48) was 0.08671 and the “UL80 (P16753) protein, numerical value of heatmap FIG. 6C” value (L, timepoint 48) was 0.04081.
